Measured values published in publication PMC6941952, “A homogeneous bioluminescent immunoassay to probe cellular signaling pathway regulation” (Communications Biology, 2020).
Several values for one entry are separate records, joined by “and”; a condition that tells them apart may be missing. Equal entries are not always repeated. Where two headings read alike, the source gives them in different places.

Biological target: T1, estrogen receptors (ER) (Homo sapiens, UniProt P03372)
T1 sequence (P03372 1-595): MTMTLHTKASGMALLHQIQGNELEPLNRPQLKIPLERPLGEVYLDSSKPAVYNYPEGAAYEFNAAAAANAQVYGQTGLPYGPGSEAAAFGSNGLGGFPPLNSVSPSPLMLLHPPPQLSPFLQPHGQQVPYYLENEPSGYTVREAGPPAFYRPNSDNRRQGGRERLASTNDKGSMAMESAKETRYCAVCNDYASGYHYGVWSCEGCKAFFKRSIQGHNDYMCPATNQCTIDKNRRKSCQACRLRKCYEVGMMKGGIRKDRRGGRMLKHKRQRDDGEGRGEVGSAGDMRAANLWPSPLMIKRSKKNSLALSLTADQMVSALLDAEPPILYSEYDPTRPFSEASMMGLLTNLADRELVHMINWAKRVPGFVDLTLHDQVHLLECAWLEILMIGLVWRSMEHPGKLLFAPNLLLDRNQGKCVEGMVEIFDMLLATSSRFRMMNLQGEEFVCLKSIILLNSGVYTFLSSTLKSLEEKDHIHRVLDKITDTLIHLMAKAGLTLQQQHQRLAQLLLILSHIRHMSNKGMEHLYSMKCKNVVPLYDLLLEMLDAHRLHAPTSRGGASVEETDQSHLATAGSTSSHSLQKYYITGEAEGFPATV
Settings: 4 h; for Total ER protein (%) / protein (%) ER: replicate
Procedure: Prior to NanoBiT Cell-Based Immunoassay, 50,000 cells were seeded in 160 µl of complete growth media per well of a 96-well plate and incubated overnight. […] If necessary, the cell culture media were replaced with serum-free media after the cells were stably adherent on the plate and incubated overnight. To treat cells with activators or inhibitors, medium was changed to 30 µl of medium containing inhibitors. If activation of a specific pathway is needed, the cells were stimulated with 10 µl of medium containing activators. To lyse the cells, 10 µl of lysis buffer containing 0.1% digitonin diluted in 1X immunoassay buffer with protease and phosphatase inhibitors was added and the plates were mixed vigorously for 20 min. Then, 50 µl of an antibody mix containing two primary antibodies against the target protein and NanoBiT detecting antibodies (0.3 µl each per well), diluted in 1X immunoassay buffer was added to the lysates. The plates were incubated at 23 °C for 90 min, followed by the addition of 25 µl of Nano-Glo® reagent consisting of Nano-Glo® Luciferase Assay Substrate mixed with 1X immunoassay buffer. Luminescence was measured using a plate-reading luminometer.
All 96-well assay plates were read using a GloMax® 96 Microplate Luminometer from Promega. The instrument was set to 0.5 s integration time. In order to obtain net change of signal, the reagent background values (signal from the well containing all reagent except primary antibodies) were subtracted from the sample values. To plot and analyze the data, Microsoft Excel and GraphPad Prism® Software were used. IC50 values were determined by using a nonlinear regression fit to a sigmoidal dose response (variable slope).

[1] = Fulvestrant 0.0976562 nM, MCF-7, Fig 7c
[2] = Fulvestrant 0.195312 nM, MCF-7, Fig 7c
[3] = Fulvestrant 0.390625 nM, MCF-7, Fig 7c
[4] = Fulvestrant 0.78125 nM, MCF-7, Fig 7c
[5] = Fulvestrant 1.5625 nM, MCF-7, Fig 7c
[6] = Fulvestrant 3.125 nM, MCF-7, Fig 7c
[7] = Fulvestrant 6.25 nM, MCF-7, Fig 7c
[8] = Fulvestrant 25 nM, MCF-7, Fig 7c
[9] = Fulvestrant 50 nM, MCF-7, Fig 7c
[10] = Fulvestrant 100 nM, MCF-7, Fig 7c

Average Total ER protein (%) (0.0976562 nM, MCF-7, Fig 7b): 100% | Raw data ER (0.0976562 nM, MCF-7, Fig 7b): 1203000 and 1328000 | Subtract reagent background ER (0.0976562 nM, MCF-7, Fig 7b): 1167700 and 974100 and 1096600 | Total ER protein (%) (0.0976562 nM, MCF-7, Fig 7b): 102.1% and 102.0% | Raw data ER (0.195312 nM, MCF-7, Fig 7b): 1310000 and 1183000 and 1306000 | Subtract reagent background ER (0.195312 nM, MCF-7, Fig 7b): 1076600 and 955300 and 1077400 | Total ER protein (%) (0.195312 nM, MCF-7, Fig 7b): 94.2% and 100.2% | Average Total ER protein (%) (0.390625 nM, MCF-7, Fig 7b): 88% | Raw data ER (0.390625 nM, MCF-7, Fig 7b): 1176000 and 1121000 | Subtract reagent background ER (0.390625 nM, MCF-7, Fig 7b): 945500 and 891700 and 1008700 | Total ER protein (%) (0.390625 nM, MCF-7, Fig 7b): 82.7% and 87.9% and 93.8% | Average Total ER protein (%) (0.78125 nM, MCF-7, Fig 7b): 73% | Raw data ER (0.78125 nM, MCF-7, Fig 7b): 1017000 and 962500 and 1057000 | Subtract reagent background ER (0.78125 nM, MCF-7, Fig 7b): 788000 and 733700 and 828700 | Total ER protein (%) (0.78125 nM, MCF-7, Fig 7b): 68.9% and 72.3% and 77.1% | Average Total ER protein (%) (1.5625 nM, MCF-7, Fig 7b): 52% | Raw data ER (1.5625 nM, MCF-7, Fig 7b): 787000 and 772400 and 799700 | Subtract reagent background ER (1.5625 nM, MCF-7, Fig 7b): 564400 and 548300 and 571400 | Total ER protein (%) (1.5625 nM, MCF-7, Fig 7b): 49.4% and 54.1% and 53.2% | Average Total ER protein (%) (3.125 nM, MCF-7, Fig 7b): 36% | Raw data ER (3.125 nM, MCF-7, Fig 7b): 594200 and 628300 | Subtract reagent background ER (3.125 nM, MCF-7, Fig 7b): 405200 and 370300 and 399100 | Total ER protein (%) (3.125 nM, MCF-7, Fig 7b): 35.4% and 36.5% and 37.1% | Average Total ER protein (%) (6.25 nM, MCF-7, Fig 7b): 29% | Raw data ER (6.25 nM, MCF-7, Fig 7b): 540300 and 521900 | Subtract reagent background ER (6.25 nM, MCF-7, Fig 7b): 294500 and 313200 | Total ER protein (%) (6.25 nM, MCF-7, Fig 7b): 27.5% and 29.0% and 29.1% | Average Total ER protein (%) (25 nM, MCF-7, Fig 7b): 23% | Raw data ER (25 nM, MCF-7, Fig 7b): 474000 and 455500 and 481300 | Subtract reagent background ER (25 nM, MCF-7, Fig 7b): 248500 and 229500 and 255100 | Total ER protein (%) (25 nM, MCF-7, Fig 7b): 21.7% and 22.6% and 23.7% | Average Total ER protein (%) (50 nM, MCF-7, Fig 7b): 22% | Raw data ER (50 nM, MCF-7, Fig 7b): 467500 and 453000 and 467700 | Subtract reagent background ER (50 nM, MCF-7, Fig 7b): 244000 and 227100 and 240600 | Total ER protein (%) (50 nM, MCF-7, Fig 7b): 21.3% and 22.4% | Average Total ER protein (%) (100 nM, MCF-7, Fig 7b): 21% | Raw data ER (100 nM, MCF-7, Fig 7b): 455900 and 441400 and 453000 | Subtract reagent background ER (100 nM, MCF-7, Fig 7b): 231900 and 220300 and 227600 | Total ER protein (%) (100 nM, MCF-7, Fig 7b): 20.3% and 21.7% and 21.2% | Average ER protein (%) [1]: 104.6% | Raw data ER [1]: 1438000 and 1444000 and 1315000 | Subtract reagent background ER [1]: 1210700 and 1216700 and 1087700 | protein (%) ER [1]: 106.1% and 108.4% and 99.4% | Average ER protein (%) [2]: 107.5% | Raw data ER [2]: 1431000 and 1445000 and 1414000 | Subtract reagent background ER [2]: 1204100 and 1218100 and 1187100 | protein (%) ER [2]: 105.5% and 108.5% and 108.4% | Average ER protein (%) [3]: 98.2% | Raw data ER [3]: 1290000 and 1346000 and 1340000 | Subtract reagent background ER [3]: 1063550 and 1119550 and 1113550 | protein (%) ER [3]: 93.2% and 99.7% and 101.7% | Average ER protein (%) [4]: 82.3% | Raw data ER [4]: 1111000 and 1176000 | Subtract reagent background ER [4]: 884650 and 927650 and 949650 | protein (%) ER [4]: 77.5% and 82.6% and 86.7% | Average ER protein (%) [5]: 59.5% | Raw data ER [5]: 890700 and 898000 and 891300 | Subtract reagent background ER [5]: 663400 and 670700 and 664000 | protein (%) ER [5]: 58.2% and 59.7% and 60.7% | Average ER protein (%) [6]: 41.1% | Raw data ER [6]: 677900 and 688400 and 691000 | Subtract reagent background ER [6]: 452050 and 462550 and 465150 | protein (%) ER [6]: 39.6% and 41.2% and 42.5% | Average ER protein (%) [7]: 31.0% | Raw data ER [7]: 573300 and 576800 and 566100 | Subtract reagent background ER [7]: 351400 and 340700 | protein (%) ER [7]: 30.5% and 31.3% and 31.1% | Average ER protein (%) [8]: 24.2% | Raw data ER [8]: 499600 and 500900 and 484100 | Subtract reagent background ER [8]: 275200 and 276500 and 259700 | protein (%) ER [8]: 24.1% and 24.6% and 23.7% | Average ER protein (%) [9]: 22.7% | Raw data ER [9]: 476500 and 482700 and 473700 | Subtract reagent background ER [9]: 253450 and 259650 and 250650 | protein (%) ER [9]: 22.2% and 23.1% and 22.9% | Average ER protein (%) [10]: 20.4% | Raw data ER [10]: 453900 and 451400 and 438800 | Subtract reagent background ER [10]: 234150 and 231650 and 219050 | protein (%) ER [10]: 20.5% and 20.6% and 20.0% | lowering of total ER protein level (MCF-7 cells, titration): over 80%
Structure (SMILES): C[C@]12CC[C@@H]3c4ccc(O)cc4C[C@@H](CCCCCCCCC[S+]([O-])CCCC(F)(F)C(F)(F)F)[C@H]3[C@@H]1CC[C@@H]2O (some centres unmarked) [Fulvestrant]
